Assay [1] concerns total β-catenin in SW480 colorectal cells. Nature of the assay: Total β-catenin MSD 96-well plate assay for SW480 cells. Particulars: Homo sapiens, SW480, read-out: SW480-Total beta-catenin (TBC) IC50 IP.
The next assay addresses PARP2 (Homo sapiens (Human), UniProt Q9UGN5). Nature of the assay: PARP2 biochemical assay (BPS kit).
For assay [2], the target named is 6×HIS-tankyrase 2 (946-1162) (Homo sapiens (Human), UniProt Q9H2K2). The experiment in a line: Tankyrase 2 biochemical assay (AlphaLisa, PARsylation). The settings on record: 250 nM NAD; read-out: TNKS2 IC50. (In general: Bead proximity is the source of the signal in Alpha formats.)
6×HIS-tankyrase 2 (946-1162), sequence (Q9H2K2 946-1162): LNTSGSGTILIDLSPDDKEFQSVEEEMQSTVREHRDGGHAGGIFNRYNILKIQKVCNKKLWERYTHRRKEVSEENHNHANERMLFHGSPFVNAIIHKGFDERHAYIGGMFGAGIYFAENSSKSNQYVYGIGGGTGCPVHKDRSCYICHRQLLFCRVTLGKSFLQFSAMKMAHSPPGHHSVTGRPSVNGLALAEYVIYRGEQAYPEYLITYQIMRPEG
Assay [3] concerns the target 6×HIS-tankyrase1 (1091-1325) (Homo sapiens (Human), UniProt O95271). Nature of the assay: Tankyrase 1 biochemical assay (AlphaLisa, PARsylation). The settings on record: 400 nM NAD, 60 minutes at RT; read-out: TNKS1 IC50.
Assay [4] relates to Axin2 accumulation in SW480 cells. Nature of the assay: Axin2 384 immunofluorescence assay. The class given is cell-based. The settings on record: Homo sapiens, read-out: Axin2 384 IF EC50.
Another assay has as its target PARP1 (Homo sapiens (Human), UniProt P09874). The experiment in a line: PARP1 biochemical assay (Trevigen kit). The text has this:
PARP1 biochemical assay was purchased as a kit from Trevigen (cat.#4676-096-K) and used per manufacturers recommendations.

Where two headings read alike, the source gives them in different places.

From patent US9505749B2, “Quinazolinone compounds and derivatives thereof” (AMGEN INC., priority 2012, dated 2016) come the findings set out here.

PARP2, sequence (Q9UGN5 whole entry): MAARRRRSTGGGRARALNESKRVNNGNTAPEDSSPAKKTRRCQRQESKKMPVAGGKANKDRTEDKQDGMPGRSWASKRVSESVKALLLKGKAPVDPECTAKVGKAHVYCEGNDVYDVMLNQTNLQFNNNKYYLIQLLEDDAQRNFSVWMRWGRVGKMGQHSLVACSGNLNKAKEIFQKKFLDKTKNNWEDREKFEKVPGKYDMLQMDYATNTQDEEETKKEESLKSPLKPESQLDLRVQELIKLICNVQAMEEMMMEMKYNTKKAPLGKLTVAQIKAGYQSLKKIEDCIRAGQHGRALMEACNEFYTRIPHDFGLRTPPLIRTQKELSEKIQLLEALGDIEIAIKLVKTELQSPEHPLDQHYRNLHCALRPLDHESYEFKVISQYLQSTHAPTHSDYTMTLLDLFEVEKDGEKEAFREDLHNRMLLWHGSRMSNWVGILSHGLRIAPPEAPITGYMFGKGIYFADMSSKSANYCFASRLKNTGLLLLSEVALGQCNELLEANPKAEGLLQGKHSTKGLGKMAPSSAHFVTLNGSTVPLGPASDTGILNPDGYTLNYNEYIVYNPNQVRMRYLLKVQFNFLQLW
PARP1, sequence (P09874 whole entry): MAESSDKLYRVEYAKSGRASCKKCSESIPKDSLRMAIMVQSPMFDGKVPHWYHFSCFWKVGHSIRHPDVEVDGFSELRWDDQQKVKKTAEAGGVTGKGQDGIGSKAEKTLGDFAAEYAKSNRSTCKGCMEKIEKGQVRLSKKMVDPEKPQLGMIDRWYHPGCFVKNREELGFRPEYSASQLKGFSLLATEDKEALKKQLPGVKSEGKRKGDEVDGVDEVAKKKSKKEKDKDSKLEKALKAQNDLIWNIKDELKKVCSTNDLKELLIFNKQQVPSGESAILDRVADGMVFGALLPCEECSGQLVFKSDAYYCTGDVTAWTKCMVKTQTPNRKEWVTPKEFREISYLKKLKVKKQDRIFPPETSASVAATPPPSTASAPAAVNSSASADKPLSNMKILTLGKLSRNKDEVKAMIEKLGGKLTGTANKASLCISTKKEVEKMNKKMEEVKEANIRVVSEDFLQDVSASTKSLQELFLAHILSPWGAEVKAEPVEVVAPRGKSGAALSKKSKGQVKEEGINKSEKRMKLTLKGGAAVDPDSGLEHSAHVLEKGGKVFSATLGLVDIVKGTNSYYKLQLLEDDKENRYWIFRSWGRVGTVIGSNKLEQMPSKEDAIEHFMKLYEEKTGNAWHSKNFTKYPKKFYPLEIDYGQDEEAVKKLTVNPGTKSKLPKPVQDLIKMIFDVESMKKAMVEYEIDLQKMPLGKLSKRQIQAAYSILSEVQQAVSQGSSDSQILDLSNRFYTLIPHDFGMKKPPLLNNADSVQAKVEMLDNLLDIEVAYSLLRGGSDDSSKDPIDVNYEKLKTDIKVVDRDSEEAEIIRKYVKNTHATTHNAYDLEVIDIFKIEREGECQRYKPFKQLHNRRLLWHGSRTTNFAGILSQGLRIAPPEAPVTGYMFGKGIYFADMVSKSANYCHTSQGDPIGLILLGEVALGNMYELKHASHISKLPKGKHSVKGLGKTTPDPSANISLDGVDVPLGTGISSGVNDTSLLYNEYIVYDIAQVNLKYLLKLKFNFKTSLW
6×HIS-tankyrase1 (1091-1325), sequence (O95271 1091-1325): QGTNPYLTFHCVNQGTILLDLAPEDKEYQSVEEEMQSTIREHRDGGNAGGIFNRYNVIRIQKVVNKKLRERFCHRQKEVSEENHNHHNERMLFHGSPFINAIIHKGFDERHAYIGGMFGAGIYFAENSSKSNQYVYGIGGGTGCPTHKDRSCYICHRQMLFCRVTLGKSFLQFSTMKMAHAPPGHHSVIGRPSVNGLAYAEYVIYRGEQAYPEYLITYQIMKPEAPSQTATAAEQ

For `O=C(CCSc1nc2ccccc2c(=O)[nH]1)N[C@H]1CC[C@H](n2c(=O)[nH]c3cc(Cl)ccc32)CC1` [Example 90, N-((1r,4r)-4-(5-chloro-2-oxo-2,3-dihydro-1H-benzo[d]imidazol-1-yl)cyclohexyl)-3-((4-oxo-3,4-dihydroquinazolin-2-yl)thio)propanamide], the half-maximal inhibitory concentration (IC50) in assay [1] turned out to be 7.84 nM; against PARP2 it was 720 nM; in assay [2], 0.796 nM; in assay [3] it was 0.127 nM. For the same compound, in assay [4] (SW480 cells, 24 hours), the EC50 is 3.42 nM.
As to `O=C(CCc1nc2ccccc2c(=O)[nH]1)N[C@H]1CC[C@H](c2nnc(Cc3ccccc3)o2)CC1` [Example 139, N-((1r,4r)-4-(5-benzyl-1,3,4-oxadiazol-2-yl)cyclohexyl)-3-(4-oxo-3,4-dihydroquinazolin-2-yl)propanamide], the values for the IC50 (at PARP2; against PARP1; in assay [2]) were 1130 nM, 8220 nM and 624 nM, respectively. In assay [4] (SW480 cells, 24 hours), the EC50 is more than 25000 nM.
Take `O=C(CCc1nc2ccccc2c(=O)[nH]1)N[C@H]1CC[C@H](c2nnc(-c3ccccn3)o2)CC1` [Example 131, 3-(4-oxo-3,4-dihydroquinazolin-2-yl)-N-((1r,4r)-4-(5-(pyridin-2-yl)-1,3,4-oxadiazol-2-yl)cyclohexyl)propanamide]: the IC50 in assay [1] turned out to be 1770 nM; at PARP1, 5650 nM; in assay [2] it was 187 nM. In addition, the EC50 in assay [4] (SW480 cells, 24 hours) is 12100 nM.
For the compound `O=C(CCc1nc2ccc(F)cc2c(=O)[nH]1)N[C@H]1CC[C@H](c2nnc(-c3ccccc3)o2)CC1` [Example 101, 3-(6-fluoro-4-oxo-3,4-dihydroquinazolin-2-yl)-N-((1r,4r)-4-(5-phenyl-1,3,4-oxadiazol-2-yl)cyclohexyl)propanamide], the IC50 in assay [1] came to 252 nM; on PARP2, 421 nM; on PARP1 it was 936 nM; in assay [2], 15.2 nM. Also, the EC50 in assay [4] (SW480 cells, 24 hours) came to 783 nM.
On to `O=C(CCSc1nc2ccccc2c(=O)[nH]1)N[C@H]1CC[C@H](c2nnc(-c3cccc(F)c3)o2)CC1` [Example 119, N-((1r,4r)-4-(5-(3-fluorophenyl)-1,3,4-oxadiazol-2-yl)cyclohexyl)-3-((4-oxo-3,4-dihydroquinazolin-2-yl)thio)propanamide], for which the IC50 came out at 3 nM in assay [1], 3.34 nM in assay [2] and 0.194 nM in assay [3]. Besides, the half-maximal effective concentration (EC50) in assay [4] (SW480 cells, 24 hours) is 5.72 nM.
Consider `O=C(CC[S+]([O-])c1nc2ccccc2c(=O)[nH]1)N[C@H]1CC[C@H](c2nnc(-c3ccccc3)o2)CC1` (stereo partly drawn) [Example 143, 3-((4-oxo-3,4-dihydroquinazolin-2-yl)sulfinyl)-N-((1r,4r)-4-(5-phenyl-1,3,4-oxadiazol-2-yl)cyclohexyl)propanamide], for which the values for the IC50 in assay [1], in assay [2] and in assay [3] were 929 nM, 52.3 nM and 17.9 nM, respectively. Further, the EC50 in assay [4] (SW480 cells, 24 hours) was 970 nM.
In the case of `O=C(CCCc1nc2ccccc2c(=O)[nH]1)N[C@H]1CC[C@H](c2nnc(-c3ccc(F)cc3)o2)CC1` [Example 28, N-(trans-4-(5-(4-fluorophenyl)-1,3,4-oxadiazol-2-yl)cyclohexyl)-4-(4-oxo-3,4-dihydro-2-quinazolinyl)butanamide], the IC50 in assay [1] came out at 15.9 nM; on PARP2, 1760 nM; in assay [2], 0.303 nM. Further, in assay [4] (SW480 cells, 24 hours), the EC50 is 18.5 nM.
As for `O=C(CCSc1nc2ccccc2c(=O)[nH]1)N[C@H]1C[C@@H](c2nnc(-c3ccccc3)o2)C1` [Example 39, 3-((4-oxo-3,4-dihydroquinazolin-2-yl)thio)-N-((1s,3s)-3-(5-phenyl-1,3,4-oxadiazol-2-yl)cyclobutyl)propanamide], the IC50 at PARP2 amounted to 1900 nM; in assay [2], 0.389 nM; in assay [3] it was 0.405 nM.
In the case of `O=C(CCCc1nc2ccccc2c(=O)[nH]1)N1CCC(n2cc(-c3ccccc3)[nH]c2=O)CC1` [Example 49, 2-(4-oxo-4-(4-(2-oxo-4-phenyl-2,3-dihydro-1H-imidazol-1-yl)-1-piperidinyl)butyl)-4(3H)-quinazolinone trifluoroacetic acid], the IC50 came out at 530 nM in assay [1] and 118 nM in assay [3]. Besides, the EC50 in assay [4] (SW480, 24 h) was determined as 5330 nM.
Take `O=C(CCc1nc2ccccc2c(=O)[nH]1)N[C@H]1CC[C@H](c2nnc(-c3cccnc3)o2)CC1` [Example 136, 3-(4-oxo-3,4-dihydroquinazolin-2-yl)-N-((1r,4r)-4-(5-(pyridin-3-yl)-1,3,4-oxadiazol-2-yl)cyclohexyl)propanamide]: the IC50 in assay [1] is 960 nM; at PARP2 it was 1060 nM; at PARP1 it was 10800 nM; in assay [2] it was 32.7 nM. In assay [4] (SW480 cells, 24 hours), the EC50 is 1190 nM.
Consider `O=C(CCc1nc2ccccc2c(=O)[nH]1)N[C@H]1CC[C@H](c2nnc(-c3cccc(F)c3)o2)CC1` [Example 129, N-((1r,4r)-4-(5-(3-fluorophenyl)-1,3,4-oxadiazol-2-yl)cyclohexyl)-3-(4-oxo-3,4-dihydroquinazolin-2-yl)propanamide], for which the IC50 in assay [1] is 124 nM; against PARP2, 1960 nM; against PARP1, 1090 nM; in assay [2], 12.8 nM. Further, the EC50 in assay [4] (SW480 cells, 24 hours) was determined as 435 nM.
In the case of `O=C(CCSc1nc2ccccc2c(=O)[nH]1)N[C@H]1CC[C@H](c2nnc(-c3ccc(Cl)cc3)o2)CC1` [Example 125, N-((1r,4r)-4-(5-(4-chlorophenyl)-1,3,4-oxadiazol-2-yl)cyclohexyl)-3-((4-oxo-3,4-dihydroquinazolin-2-yl)thio)propanamide], the IC50 in assay [1] was 1.93 nM; in assay [2], 0.179 nM; in assay [3], 1.52 nM. For the same compound, the EC50 in assay [4] (SW480 cells, 24 hours) came out at 1.68 nM.
On to `CC(C)(c1ccccc1)c1nnc([C@H]2CC[C@H](NC(=O)CCc3nc4ccccc4c(=O)[nH]3)CC2)o1` [Example 140, 3-(4-oxo-3,4-dihydroquinazolin-2-yl)-N-((1r,4r)-4-(5-(2-phenylpropan-2-yl)-1,3,4-oxadiazol-2-yl)cyclohexyl)propanamide], for which the values for the IC50 (against PARP2; against PARP1; in assay [3]) were 1290 nM, 7450 nM and 1210 nM, respectively.
With `N#Cc1ccc(-c2nnc([C@H]3CC[C@H](NC(=O)CCc4nc5ccccc5c(=O)[nH]4)CC3)o2)cc1` [Example 134, N-((1r,4r)-4-(5-(4-cyanophenyl)-1,3,4-oxadiazol-2-yl)cyclohexyl)-3-(4-oxo-3,4-dihydroquinazolin-2-yl)propanamide], the IC50 in assay [1] was found to be 253 nM; against PARP2 it was 2110 nM; in assay [2], 14.2 nM.
Turning to `O=C(CCSc1nc2ccccc2c(=O)[nH]1)N[C@H]1C[C@H](c2nnc(-c3ccccc3)o2)C1` [Example 40, 3-((4-oxo-3,4-dihydroquinazolin-2-yl)thio)-N-((1r,3r)-3-(5-phenyl-1,3,4-oxadiazol-2-yl)cyclobutyl)propanamide], the half-maximal inhibitory concentration (IC50) against PARP2 worked out at 3970 nM; in assay [3], 0.0891 nM.
Turning to `O=C(CCSc1nc2ccccc2c(=O)[nH]1)N[C@H]1CC[C@H](c2nnc(-c3ccc(F)cc3)o2)CC1` [Example 117, N-((1r,4r)-4-(5-(4-fluorophenyl)-1,3,4-oxadiazol-2-yl)cyclohexyl)-3-((4-oxo-3,4-dihydroquinazolin-2-yl)thio)propanamide], the figures for the IC50 in assay [1], in assay [2] and in assay [3] were 1.23 nM, 3.98 nM and 0.269 nM, respectively. The EC50 in assay [4] (SW480 cells, 24 hours) was 2.78 nM.
Regarding `O=C(CCc1nc2ccccc2c(=O)[nH]1)N[C@H]1CC[C@H](c2nnc(-c3cccc(Cl)c3)o2)CC1` [Example 130, N-((1r,4r)-4-(5-(3-chlorophenyl)-1,3,4-oxadiazol-2-yl)cyclohexyl)-3-(4-oxo-3,4-dihydroquinazolin-2-yl)propanamide], the IC50 in assay [1] is 110 nM; against PARP2, 944 nM; against PARP1 it was 998 nM; in assay [2], 7.92 nM. The EC50 in assay [4] (SW480 cells, 24 hours) came to 240 nM.
With `O=C(CCc1nc2ccccc2c(=O)[nH]1)N[C@H]1CC[C@H](c2nnc(-c3ccc(F)cc3)o2)CC1` [Example 127, N-((1r,4r)-4-(5-(4-fluorophenyl)-1,3,4-oxadiazol-2-yl)cyclohexyl)-3-(4-oxo-3,4-dihydroquinazolin-2-yl)propanamide], the IC50 in assay [1] amounted to 157 nM; against PARP2, 2310 nM; against PARP1 it was 1970 nM; in assay [2], 12.7 nM. Further, the EC50 in assay [4] (SW480 cells, 24 hours) was 307 nM.
Take `O=C(CCc1nc2ccccc2c(=O)[nH]1)N[C@H]1CC[C@H](c2nnc(-c3ccccc3Cl)o2)CC1` [Example 128, N-((1r,4r)-4-(5-(2-chlorophenyl)-1,3,4-oxadiazol-2-yl)cyclohexyl)-3-(4-oxo-3,4-dihydroquinazolin-2-yl)propanamide]: the concentration for half-maximal inhibition (IC50) in assay [1] is 592 nM; against PARP2 it was 276 nM; against PARP1, 3890 nM; in assay [2], 81.3 nM. Further, in assay [4] (SW480 cells, 24 hours), the EC50 was 1750 nM.
On to `O=C(CCc1nc2ccccc2c(=O)[nH]1)N[C@H]1CC[C@H](c2nnc(-c3cnccn3)o2)CC1` [Example 142, 3-(4-oxo-3,4-dihydroquinazolin-2-yl)-N-((1r,4r)-4-(5-(pyrazin-2-yl)-1,3,4-oxadiazol-2-yl)cyclohexyl)propanamide], for which the IC50 was 1700 nM at PARP2, 5470 nM against PARP1 and 203 nM in assay [2]. Moreover, the EC50 in assay [4] (SW480 cells, 24 hours) stood at 6490 nM.

The term IC50 denotes the point on the concentration scale where inhibition reaches its midpoint. Usually EC50 stands for the concentration that produces a half-maximal response.
